The source of these data is US20250011686A1, “BIODEGRADABLE CHELATING AGENTS AND METHODS FOR FABRIC CARE” (The Procter & Gamble Company, priority 2023, published 2025).

Holding throughout (format): physicochemical
Series [1] can be described thus: pKa of chelating agent (Table 1). The note with it: successive pKa values; for catechin (A)/(B). The source says: Chelation is a type of bonding of ions and molecules to metal ions. It involves the formation or presence of two or more separate coordinate bonds between a ligand and a metal atom. Without being bound by theory, the stain removal effectiveness of a composition comprising one or more chelating agents may depend at least in part on the ability of the chelating agent(s) to bind to iron, which may be present in some stains, such as fruit or beverage stains. Several factors may impact a chelating agent's ability to bind to iron. These factors may include the pKa of the chelating agent compared to the wash pH, and the affinity of the chelating agent to bind with other metals, materials, or compositions in the wash.
Various embodiments may provide or employ a composition that comprises one or more chelating agents having a pKa that is less than the wash pH.

Series [2] can be described thus: Iron binding efficiency, logK(β110) (Table 1). The note with it: one metal, one ligand, no protons. From the text:
(§1) The binding efficiencies may be expressed as a binding constant. A binding constant (also called formation constant or stability constant) is an equilibrium constant for the formation of a complex in solution. It is a measure of the strength of the interaction between the reagents that come together to form the complex. As an example, various stains may comprise catechins as shown in Formula 13. In Table 1, the reaction between metals and ligands is described in terms of log K(β110). In this context, K, is the equilibrium constant for the reaction between ligands and metals. The higher K, the more metal is bound. This is illustrated in the following example. β, represents the binding efficiency and receives some subscripts (βmlh) to indicate how many metals (m), ligands (l), and protons (h) respectively are involved.

A short description of series [3]: Calcium binding efficiency, logK(β110) (Table 1). The note with it: one metal, one ligand, no protons.
From the text: as §1

Turning to `O=c1cccccc1O` [Tropolone, 2-Hydroxycyclohepta-2,4,6-trien-1-one], the pKa (in general, the pH at which an ionisable group is half protonated) in series [1] is 6.7. In series [2], the “Fe (III) logK(β110) (iron binding efficiency)” value (shortened to “Fe (III) logK(β110)”) turned out to be 10.5. In series [3], the “Ca^2+ logK(β110) (calcium binding efficiency)” value was found to be 3.1.

For `CC(C)c1cccc(=O)c(O)c1` [Hinokitiol, 2-Hydroxy-6-(propan-2-yl)cyclohepta-2,4,6-trien-1-one], the pKa in series [1] is roughly 7. Besides, the “Fe (III) logK(β110)” value in series [2] came to 12.9. In addition, the “Ca^2+ logK(β110) (calcium binding efficiency)” value in series [3] is on record as 2.2.

Regarding `CC(O)(P(=O)(O)O)P(=O)(O)O` [HEDP, 1-Hydroxyethylidene-1,1-diphosphonic acid, reference compound], the “Fe (III) logK(β110)” value in series [2] worked out at 14.1. In addition, in series [3], the “Ca^2+ logK(β110) (calcium binding efficiency)” value is reported as 6.8.

For the compound `Oc1cc(O)c2c(c1)OC(c1ccc(O)c(O)c1)C(O)C2` (stereo not shown) [Catechin], in series [1], the pKa was 8.7. Further, the figures for the “Fe (III) logK(β110)” value in series [2] and in series [2] (listed as catechins) were 19.2 and “about 19.2”, respectively. Further, the “Ca^2+ logK(β110) (calcium binding efficiency)” value in series [3] is recorded as 3.5; in series [3] (listed as catechins), “about 3.5”.
